Measurements: patent publication US6881710B1, “Personal care products based upon surfactants based upon alkyl polyglucoside quaternary compounds” (Colonial Chemical Inc., priority 2004, dated 2005)

Key:
[1] = test system: Pseudomonas aeruginosa; Staphylococcus aureus; Candida albicans; Aspergillus niger; test: antimicrobial zone inhibition technique, activity summary over four test organisms; format: cell-based; conditions: 0.50% by weight in water; for Comments (antimicrobial activity in words): B = bacteria, Y = yeast, M = mold; for Score (sum of the four organism scores): lower score = greater activity
Description: (§1) A study was conducted to determine the antimicrobial capability of four (4) SugaQuat (alkyl polyglucoside) variations utilizing the zone inhibition technique. The test materials were evaluated for gross antimicrobial activity against a series of four (4) test organisms: Pseudomonas aeruginosa (Gram-negative bacteria); Staphylococcus aureus (Gram-positive bacteria); Candida albicans (yeast) and Aspergillus niger (mold) utilizing the zone inhibition technique.
(§2) • Sodium Lauryl Sulfate (0.50% by weight concentration in water). • Sodium Laureth 2 Sulfate (0.50% by weight concentration in water). • Example 3 (0.50% by weight concentration in water). • Example 4 (0.50% by weight concentration in water). • Example 8 (0.50% by weight concentration in water). • Example 9 (0.50% by weight concentration in water). • Example 7 (0.50% by weight concentration in water). Activity Summary • SCORING: • 1=Excellent; 2=Very Good; 3=Good; 4=OK (moderate); 6=Poor; 8=No Activity Control Compounds

[2] = test system: Aspergillus niger (mold); test: antimicrobial zone inhibition technique; format: cell-based; parameters: key: 1=Excellent; 2=Very Good; 3=Good; 4=OK (moderate); 6=Poor; 8=No Activity; conditions: 0.50% by weight in water; lower score = greater activity
Description: as §1, §2

[3] = test system: Candida albicans (yeast); test: antimicrobial zone inhibition technique; format: cell-based; parameters: key: 1=Excellent; 2=Very Good; 3=Good; 4=OK (moderate); 6=Poor; 8=No Activity; conditions: 0.50% by weight in water; lower score = greater activity
Description: as §1, §2

[4] = test system: Pseudomonas aeruginosa (Gram-negative bacteria); test: antimicrobial zone inhibition technique; format: cell-based; parameters: key: 1=Excellent; 2=Very Good; 3=Good; 4=OK (moderate); 6=Poor; 8=No Activity; conditions: 0.50% by weight in water; lower score = greater activity
Description: as §1, §2

[5] = test system: Staphylococcus aureus (Gram-positive bacteria); test: antimicrobial zone inhibition technique; format: cell-based; parameters: key: 1=Excellent; 2=Very Good; 3=Good; 4=OK (moderate); 6=Poor; 8=No Activity; conditions: 0.50% by weight in water; lower score = greater activity
Description: as §1, §2

[6] = salon half head study of conditioning (combability and softness) and wet comb of washed hair; format: in vivo; conditions: 5% solution; rated by the test person, scale 1 (poor) to 5 excellent
Description: Conditioning was studied. The wet comb properties of hair washed in the salon in half head studies was conducted. Evaluation of the dry hair was also evaluated. A 5% solution of the composition of the present invention was evaluated. The person having the test run was asked to evaluate the following samples for combability and softness of the hair. The scale was 1 (poor) to 5 excellent.

[7] = modified Ross-Miles Foam Test; format: physicochemical; conditions: 1% active in water, 66-67 °C, shaken ten times; time point not stated; higher is better
Excerpt: Sodium Lauryl sulfate is one of the most commonly used anionic surfactants. While it is a good detergent and produces large volume of foam, it is irritating and has no conditioning properties. In fact, it strips the oil from hair leaving the hair dry and fly away. Compounds of the present invention compare favorably with sodium lauryl sulfate in foam levels, and detergency, but also are non-irritating, conditioning and provide self-preserving properties. This coupled with the fact that they are derived from natural sugars, makes them the perfect single surfactant for personal care formulation. The following compounds were evaluated at 1% active in water. The higher the foam, the better.
The foaming properties of the compositions were also evaluated by a modified “Ross-Miles Foam Test”. This compares the foaming tendencies of different products or surfactants in water at various temperatures.
The test is carried out as follows: • 1. 500 ml. of water (the water should be representative of the system^1) was added to a 1000 ml. graduated cylinder having a cylinder diameter 65 mm. Then 18.0-ppm ortho phosphate is added to the cylinder as a buffer. The test is carried out at a temperature of 66° C. to 67° C. • 2. The concentration tested was 1% by weight solids. • 3. Then cylinder with contents is shaken vertically at the specified temperature ten times (the times shaken equals the number of cycles). After the tenth time, the initial foam height (t=0) is recorded in ml. Then the foam level at t=5 minutes and t=30 minutes is recorded. Results

[8] = salon half head study of detergency (cleanliness of washed hair); format: in vivo; conditions: 5% solution; rated by the test person, scale 1 (poor) to 5 excellent
Description: Detergency was also studies. The cleanliness of hair washed in the salon in half head studies was conducted. A 5% solution of the composition of the present invention was evaluated. The person having the test run was asked to evaluate the following samples for cleanliness of the hair. The scale was 1 (poor) to 5 excellent.

Molecule	Comments (antimicrobial activity in words) [1]	Score (sum of the four organism scores) [1]	An activity score [2]	Ca activity score [3]	Psa activity score [4]	Sa activity score [5]	Conditioning [6]	Wet Comb [6]	Foam Level [7] [mL]	Detergency Result (cleanliness of the hair) [8]
CCCCCCCCCCCCOS(=O)(=O)[O-].[Na+] [Sodium Lauryl Sulfate]	No activity	32	8	8	8	8	1	1	900	5
Sodium Laureth 2 Sulfate	No activity	32	8	8	8	8	1	1	770	4
Sodium laureth 1-sulfate	–	–	–	–	–	–	–	–	750	–
Sodium laureth 3-sulfate	–	–	–	–	–	–	–	–	720	–
